In the kinase profiling compilation of Christmann-Franck et al. (2016):

Assays:
PIK3CG (human) = PIK3CG (human) (UniProt P48736); assay: ADP detection assay-Luminescence
SPHK1 (human) = SPHK1 (human) (UniProt Q9NYA1); assay: ADP detection assay-Luminescence; conditions: ATP 10 µM
PIK3CB PIK3R1 (human) = PIK3CB PIK3R1 (human) (UniProt P27986+P42338); assay: ADP detection assay-Luminescence; conditions: ATP 1000 µM
PIP4K2A (human) = PIP4K2A (human) (UniProt P48426); assay: ADP detection assay-Luminescence
PIK3CA PIK3R1 (human) = PIK3CA PIK3R1 (human) (UniProt P27986+P42336); assay: ADP detection assay-Luminescence; conditions: ATP 1000 µM
DGKB (human) = DGKB (human) (UniProt Q9Y6T7); assay: ADP detection assay-Luminescence
CHKA (human) = CHKA (human) (UniProt P35790); assay: ADP detection assay-Luminescence; conditions: ATP 1 µM
SPHK2 (human) = SPHK2 (human) (UniProt Q9NRA0); assay: ADP detection assay-Luminescence; conditions: ATP 1 µM
MAPK1 (human) = MAPK1 (human) (UniProt P28482); assay: radiometric filter-binding kinase assay
MAPK11 (human) = MAPK11 (human) (UniProt Q15759); assay: radiometric filter-binding kinase assay; conditions: ATP 20 µM
Sequence of MAPK11 (human) (Q15759 whole entry, looked up): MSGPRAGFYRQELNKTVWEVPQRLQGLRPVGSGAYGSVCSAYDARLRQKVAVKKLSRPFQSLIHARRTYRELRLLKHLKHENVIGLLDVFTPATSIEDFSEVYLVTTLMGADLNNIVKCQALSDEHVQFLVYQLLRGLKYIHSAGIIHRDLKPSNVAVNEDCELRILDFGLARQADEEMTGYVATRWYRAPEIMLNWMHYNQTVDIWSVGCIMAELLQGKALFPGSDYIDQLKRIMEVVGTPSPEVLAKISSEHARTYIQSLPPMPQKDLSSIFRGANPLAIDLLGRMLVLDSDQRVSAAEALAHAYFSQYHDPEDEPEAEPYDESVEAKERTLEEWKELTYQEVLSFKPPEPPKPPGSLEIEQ

[1] = test system: RPS6KB1 (human), P23443 [T412E]; assay: radiometric filter-binding kinase assay; conditions: ATP 100 µM
Sequence of RPS6KB1 (human), P23443 [T412E] (P23443 whole entry T412E, looked up): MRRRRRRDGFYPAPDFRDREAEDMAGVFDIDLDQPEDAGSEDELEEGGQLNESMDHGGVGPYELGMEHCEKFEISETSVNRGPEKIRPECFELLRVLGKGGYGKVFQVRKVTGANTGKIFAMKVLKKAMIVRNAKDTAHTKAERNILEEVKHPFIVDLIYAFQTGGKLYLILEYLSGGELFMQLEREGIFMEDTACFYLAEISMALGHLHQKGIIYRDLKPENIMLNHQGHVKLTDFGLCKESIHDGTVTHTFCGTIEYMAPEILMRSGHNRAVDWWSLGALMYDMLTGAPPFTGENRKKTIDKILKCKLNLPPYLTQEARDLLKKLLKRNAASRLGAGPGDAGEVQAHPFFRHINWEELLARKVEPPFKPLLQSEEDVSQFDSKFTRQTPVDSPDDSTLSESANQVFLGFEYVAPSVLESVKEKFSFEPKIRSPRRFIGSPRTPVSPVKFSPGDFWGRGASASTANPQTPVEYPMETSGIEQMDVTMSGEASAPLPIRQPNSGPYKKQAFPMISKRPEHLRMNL

PIM2 (human) = PIM2 (human) (UniProt Q9P1W9); assay: radiometric filter-binding kinase assay; conditions: ATP 5 µM
CSNK1D (human) = CSNK1D (human) (UniProt P48730); assay: radiometric filter-binding kinase assay; conditions: ATP 20 µM
Sequence of CSNK1D (human) (P48730 whole entry, looked up): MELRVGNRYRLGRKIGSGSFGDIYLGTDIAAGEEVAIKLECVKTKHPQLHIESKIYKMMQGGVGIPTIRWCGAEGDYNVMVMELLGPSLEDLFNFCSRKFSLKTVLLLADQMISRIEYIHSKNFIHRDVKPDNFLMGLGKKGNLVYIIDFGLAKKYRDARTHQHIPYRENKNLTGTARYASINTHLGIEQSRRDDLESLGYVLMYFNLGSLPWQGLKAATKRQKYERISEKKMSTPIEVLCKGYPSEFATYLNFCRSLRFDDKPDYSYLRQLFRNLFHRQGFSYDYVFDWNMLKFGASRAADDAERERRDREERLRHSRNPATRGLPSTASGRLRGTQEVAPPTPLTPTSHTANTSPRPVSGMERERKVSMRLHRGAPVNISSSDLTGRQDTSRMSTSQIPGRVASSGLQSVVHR

PKN2 (human) = PKN2 (human) (UniProt Q16513); assay: radiometric filter-binding kinase assay; conditions: ATP 5 µM
Sequence of PKN2 (human) (Q16513 whole entry, looked up): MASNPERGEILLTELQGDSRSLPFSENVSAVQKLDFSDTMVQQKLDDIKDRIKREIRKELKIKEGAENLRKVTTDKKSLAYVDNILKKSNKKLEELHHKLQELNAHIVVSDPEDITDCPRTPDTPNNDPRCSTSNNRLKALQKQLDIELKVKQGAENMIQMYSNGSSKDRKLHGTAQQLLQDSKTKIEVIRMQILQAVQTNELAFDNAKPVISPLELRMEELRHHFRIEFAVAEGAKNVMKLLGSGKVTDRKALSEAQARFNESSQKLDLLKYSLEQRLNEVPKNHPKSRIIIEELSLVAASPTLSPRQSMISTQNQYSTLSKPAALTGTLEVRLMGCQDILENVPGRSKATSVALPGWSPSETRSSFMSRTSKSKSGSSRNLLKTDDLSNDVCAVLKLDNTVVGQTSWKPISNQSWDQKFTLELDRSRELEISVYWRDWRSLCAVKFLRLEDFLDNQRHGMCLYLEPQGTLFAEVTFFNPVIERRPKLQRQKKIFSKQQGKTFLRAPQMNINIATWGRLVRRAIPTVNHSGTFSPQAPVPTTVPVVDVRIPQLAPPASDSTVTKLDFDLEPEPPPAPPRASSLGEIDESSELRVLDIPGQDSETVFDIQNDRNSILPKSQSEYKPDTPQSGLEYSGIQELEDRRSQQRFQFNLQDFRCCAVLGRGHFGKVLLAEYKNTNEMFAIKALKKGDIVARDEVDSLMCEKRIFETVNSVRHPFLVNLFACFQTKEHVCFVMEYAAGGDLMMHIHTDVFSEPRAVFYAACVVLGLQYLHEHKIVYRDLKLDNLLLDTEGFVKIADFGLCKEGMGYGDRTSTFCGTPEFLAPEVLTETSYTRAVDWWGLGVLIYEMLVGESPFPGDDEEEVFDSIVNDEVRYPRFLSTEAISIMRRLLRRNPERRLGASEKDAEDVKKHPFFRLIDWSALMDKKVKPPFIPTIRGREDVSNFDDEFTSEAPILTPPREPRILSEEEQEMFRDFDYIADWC

DYRK3 (human) = DYRK3 (human) (UniProt O43781); assay: radiometric filter-binding kinase assay; conditions: ATP 5 µM
MAPK8 (human) = MAPK8 (human) (UniProt P45983); assay: radiometric filter-binding kinase assay; conditions: ATP 20 µM
[2] = target: PRKAA1 PRKAB2 PRKAG1 (human) (UniProt O43741+Q13131+P54619); assay: radiometric filter-binding kinase assay; conditions: ATP 50 µM
DYRK2 (human) = DYRK2 (human) (UniProt Q92630); assay: radiometric filter-binding kinase assay; conditions: ATP 50 µM
Sequence of DYRK2 (human) (Q92630 whole entry, looked up): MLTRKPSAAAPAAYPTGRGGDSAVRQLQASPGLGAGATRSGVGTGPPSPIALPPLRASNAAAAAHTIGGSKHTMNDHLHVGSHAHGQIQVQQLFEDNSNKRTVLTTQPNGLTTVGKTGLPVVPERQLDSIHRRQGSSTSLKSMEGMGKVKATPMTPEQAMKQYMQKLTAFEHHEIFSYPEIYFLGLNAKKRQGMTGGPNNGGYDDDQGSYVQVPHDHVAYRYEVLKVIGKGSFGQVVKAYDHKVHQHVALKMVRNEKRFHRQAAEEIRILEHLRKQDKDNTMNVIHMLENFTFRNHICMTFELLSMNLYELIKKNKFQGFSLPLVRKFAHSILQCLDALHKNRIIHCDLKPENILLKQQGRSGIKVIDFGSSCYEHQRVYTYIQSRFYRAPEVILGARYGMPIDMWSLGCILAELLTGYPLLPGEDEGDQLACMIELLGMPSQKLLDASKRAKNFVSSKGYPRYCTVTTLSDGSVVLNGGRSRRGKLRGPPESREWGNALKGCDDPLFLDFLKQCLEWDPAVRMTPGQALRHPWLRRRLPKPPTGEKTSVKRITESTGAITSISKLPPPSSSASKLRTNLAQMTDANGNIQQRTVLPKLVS

MAPK14 (human) = MAPK14 (human) (UniProt Q16539); assay: radiometric filter-binding kinase assay; conditions: ATP 50 µM
RPS6KA1 KD1 KD2 (human) = RPS6KA1 KD1 KD2 (human) (UniProt Q15418); assay: radiometric filter-binding kinase assay; conditions: ATP 100 µM
Sequence of RPS6KA1 KD1 KD2 (human) (Q15418 whole entry, looked up): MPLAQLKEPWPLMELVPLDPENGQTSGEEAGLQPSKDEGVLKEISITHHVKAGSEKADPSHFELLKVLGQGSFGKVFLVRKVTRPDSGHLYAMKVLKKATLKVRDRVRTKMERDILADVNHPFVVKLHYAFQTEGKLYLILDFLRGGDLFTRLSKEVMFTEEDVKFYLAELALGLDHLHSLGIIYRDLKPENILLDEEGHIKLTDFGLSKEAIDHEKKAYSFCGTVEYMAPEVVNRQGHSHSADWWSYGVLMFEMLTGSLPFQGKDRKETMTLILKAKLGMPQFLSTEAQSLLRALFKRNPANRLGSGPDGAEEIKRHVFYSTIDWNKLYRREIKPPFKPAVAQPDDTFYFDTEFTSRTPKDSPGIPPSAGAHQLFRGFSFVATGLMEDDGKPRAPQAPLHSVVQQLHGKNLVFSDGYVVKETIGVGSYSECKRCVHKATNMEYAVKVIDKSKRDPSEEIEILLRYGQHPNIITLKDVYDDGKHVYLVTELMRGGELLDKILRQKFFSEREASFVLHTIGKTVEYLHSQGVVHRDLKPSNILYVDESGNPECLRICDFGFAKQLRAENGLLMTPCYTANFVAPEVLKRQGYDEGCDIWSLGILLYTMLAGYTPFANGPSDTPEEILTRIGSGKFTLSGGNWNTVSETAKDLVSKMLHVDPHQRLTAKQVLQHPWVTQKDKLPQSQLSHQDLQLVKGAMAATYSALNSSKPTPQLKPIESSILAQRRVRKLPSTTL

RPS6KB2 (human) = RPS6KB2 (human) (UniProt Q9UBS0); assay: radiometric filter-binding kinase assay; conditions: ATP 100 µM
IKBKB (human) = IKBKB (human) (UniProt O14920); assay: radiometric filter-binding kinase assay; conditions: ATP 5 µM
MKNK1 (human) = MKNK1 (human) (UniProt Q9BUB5); assay: radiometric filter-binding kinase assay; conditions: ATP 50 µM
EPHB3 (human) = EPHB3 (human) (UniProt P54753); assay: radiometric filter-binding kinase assay; conditions: ATP 20 µM
IKBKE (human) = IKBKE (human) (UniProt Q14164); assay: radiometric filter-binding kinase assay; conditions: ATP 50 µM
MAPK12 (human) = MAPK12 (human) (UniProt P53778); assay: radiometric filter-binding kinase assay; conditions: ATP 5 µM
TBK1 (human) = TBK1 (human) (UniProt Q9UHD2); assay: radiometric filter-binding kinase assay; conditions: ATP 50 µM
Sequence of TBK1 (human) (Q9UHD2 whole entry, looked up): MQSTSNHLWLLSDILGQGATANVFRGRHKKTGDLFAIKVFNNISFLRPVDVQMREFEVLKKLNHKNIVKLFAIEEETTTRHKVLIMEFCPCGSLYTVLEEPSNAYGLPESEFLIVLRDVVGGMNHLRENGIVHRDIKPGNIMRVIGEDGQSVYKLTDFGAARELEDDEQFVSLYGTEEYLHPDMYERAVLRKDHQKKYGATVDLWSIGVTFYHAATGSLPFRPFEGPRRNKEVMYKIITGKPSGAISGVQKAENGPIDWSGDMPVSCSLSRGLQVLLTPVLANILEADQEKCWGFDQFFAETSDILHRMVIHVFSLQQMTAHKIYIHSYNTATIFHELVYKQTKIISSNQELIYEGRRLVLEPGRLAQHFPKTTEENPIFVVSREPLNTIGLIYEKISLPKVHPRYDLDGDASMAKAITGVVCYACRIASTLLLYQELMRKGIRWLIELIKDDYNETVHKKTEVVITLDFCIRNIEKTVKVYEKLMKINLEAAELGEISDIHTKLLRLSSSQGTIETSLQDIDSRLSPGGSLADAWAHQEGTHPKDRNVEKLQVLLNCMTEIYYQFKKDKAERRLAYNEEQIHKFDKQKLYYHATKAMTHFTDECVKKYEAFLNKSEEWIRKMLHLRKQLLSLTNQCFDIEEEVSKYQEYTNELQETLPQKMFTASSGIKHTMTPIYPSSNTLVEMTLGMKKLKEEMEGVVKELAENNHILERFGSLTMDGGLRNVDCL

CAMKK2 (human) = CAMKK2 (human) (UniProt Q96RR4); assay: radiometric filter-binding kinase assay; conditions: ATP 20 µM
PAK6 (human) = PAK6 (human) (UniProt Q9NQU5); assay: radiometric filter-binding kinase assay; conditions: ATP 20 µM
Sequence of PAK6 (human) (Q9NQU5 whole entry, looked up): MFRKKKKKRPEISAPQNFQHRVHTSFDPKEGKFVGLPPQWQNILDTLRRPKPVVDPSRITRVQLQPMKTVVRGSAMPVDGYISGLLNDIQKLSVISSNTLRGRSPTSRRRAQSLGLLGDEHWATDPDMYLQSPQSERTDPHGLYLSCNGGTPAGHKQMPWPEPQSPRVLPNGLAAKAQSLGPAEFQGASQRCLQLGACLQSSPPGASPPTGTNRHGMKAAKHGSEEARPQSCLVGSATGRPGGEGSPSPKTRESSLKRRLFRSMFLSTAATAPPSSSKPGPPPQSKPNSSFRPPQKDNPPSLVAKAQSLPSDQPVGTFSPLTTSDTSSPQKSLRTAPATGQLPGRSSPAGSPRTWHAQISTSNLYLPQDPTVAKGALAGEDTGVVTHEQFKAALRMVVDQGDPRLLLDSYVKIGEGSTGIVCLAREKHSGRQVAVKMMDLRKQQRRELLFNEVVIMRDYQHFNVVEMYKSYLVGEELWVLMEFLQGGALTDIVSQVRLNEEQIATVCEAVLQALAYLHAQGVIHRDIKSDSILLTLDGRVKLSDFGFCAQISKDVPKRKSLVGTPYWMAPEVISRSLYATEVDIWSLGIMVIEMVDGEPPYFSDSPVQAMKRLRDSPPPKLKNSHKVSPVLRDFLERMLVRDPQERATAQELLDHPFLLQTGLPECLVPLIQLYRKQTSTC

CCc1cncnc1N1CCN(Cc2nc3cc(C(F)(F)F)ccc3[nH]2)CC1
residual activity (PIK3CG (human); compound 1.0 µM): 101%
residual activity (PIK3CG (human); compound 10.0 µM): 102%
residual activity (SPHK1 (human); compound 1.0 µM): 99%
residual activity (SPHK1 (human); compound 10.0 µM): 103%
residual activity (PIK3CB PIK3R1 (human); compound 1.0 µM): 103%
residual activity (PIK3CB PIK3R1 (human); compound 10.0 µM): 115%
residual activity (PIP4K2A (human); compound 1.0 µM): 101%
residual activity (PIP4K2A (human); compound 10.0 µM): 100%
residual activity (PIK3CA PIK3R1 (human); compound 1.0 µM): 107%
residual activity (PIK3CA PIK3R1 (human); compound 10.0 µM): 117%
residual activity (DGKB (human); compound 1.0 µM): 98%
residual activity (DGKB (human); compound 10.0 µM): 99%
residual activity (CHKA (human); compound 1.0 µM): 98%
residual activity (CHKA (human); compound 10.0 µM): 94%
residual activity (SPHK2 (human); compound 1.0 µM): 100%
residual activity (SPHK2 (human); compound 10.0 µM): 98%
residual activity (MAPK1 (human); compound 0.1 µM, ATP 5 µM): 88%
residual activity (MAPK1 (human); compound 0.1 µM, ATP 50 µM): 93%
residual activity (MAPK1 (human); compound 1.0 µM, ATP 5 µM): 96%
residual activity (MAPK1 (human); compound 1.0 µM, ATP 50 µM): 85%
residual activity (MAPK1 (human); compound 10.0 µM, ATP 5 µM): 77%
residual activity (MAPK1 (human); compound 10.0 µM, ATP 50 µM): 86%
residual activity (MAPK11 (human); compound 0.1 µM): 88%
residual activity (MAPK11 (human); compound 1.0 µM): 89%
residual activity (MAPK11 (human); compound 10.0 µM): 97%
residual activity ([1]; compound 0.1 µM): 58%
residual activity ([1]; compound 1.0 µM): 23%
residual activity ([1]; compound 10.0 µM): 7%
residual activity (PIM2 (human); compound 0.1 µM): 90%
residual activity (PIM2 (human); compound 1.0 µM): 90%
residual activity (PIM2 (human); compound 10.0 µM): 100%
residual activity (CSNK1D (human); compound 0.1 µM): 96%
residual activity (CSNK1D (human); compound 1.0 µM): 93%
residual activity (CSNK1D (human); compound 10.0 µM): 71%
residual activity (PKN2 (human); compound 0.1 µM): 95%
residual activity (PKN2 (human); compound 1.0 µM): 86%
residual activity (PKN2 (human); compound 10.0 µM): 84%
residual activity (DYRK3 (human); compound 0.1 µM): 106%
residual activity (DYRK3 (human); compound 1.0 µM): 92%
residual activity (DYRK3 (human); compound 10.0 µM): 83%
residual activity (MAPK8 (human); compound 0.1 µM): 111%
residual activity (MAPK8 (human); compound 1.0 µM): 107%
residual activity (MAPK8 (human); compound 10.0 µM): 95%
residual activity ([2]; compound 0.1 µM): 100%
residual activity ([2]; compound 1.0 µM): 88%
residual activity ([2]; compound 10.0 µM): 46%
residual activity (DYRK2 (human); compound 0.1 µM): 97%
residual activity (DYRK2 (human); compound 1.0 µM): 104%
residual activity (DYRK2 (human); compound 10.0 µM): 101%
residual activity (MAPK14 (human); compound 0.1 µM): 86%
residual activity (MAPK14 (human); compound 1.0 µM): 79%
residual activity (MAPK14 (human); compound 10.0 µM): 86%
IC50 (RPS6KA1 KD1 KD2 (human)): 4.7 µM
residual activity (RPS6KA1 KD1 KD2 (human); compound 0.1 µM): 85%
residual activity (RPS6KA1 KD1 KD2 (human); compound 1.0 µM): 83%
residual activity (RPS6KA1 KD1 KD2 (human); compound 10.0 µM): 33%
IC50 (RPS6KB2 (human)): 65 µM
residual activity (IKBKB (human); compound 0.1 µM): 195%
residual activity (IKBKB (human); compound 1.0 µM): 230%
residual activity (IKBKB (human); compound 10.0 µM): 192%
residual activity (MKNK1 (human); compound 0.1 µM): 101%
residual activity (MKNK1 (human); compound 1.0 µM): 91%
residual activity (MKNK1 (human); compound 10.0 µM): 79%
residual activity (EPHB3 (human); compound 0.1 µM): 132%
residual activity (EPHB3 (human); compound 1.0 µM): 139%
residual activity (EPHB3 (human); compound 10.0 µM): 101%
residual activity (IKBKE (human); compound 0.1 µM): 103%
residual activity (IKBKE (human); compound 1.0 µM): 99%
residual activity (IKBKE (human); compound 10.0 µM): 96%
residual activity (MAPK12 (human); compound 0.1 µM): 107%
residual activity (MAPK12 (human); compound 1.0 µM): 102%
residual activity (MAPK12 (human); compound 10.0 µM): 103%
residual activity (TBK1 (human); compound 0.1 µM): 100%
residual activity (TBK1 (human); compound 1.0 µM): 89%
residual activity (TBK1 (human); compound 10.0 µM): 93%
residual activity (CAMKK2 (human); compound 0.1 µM): 99%
residual activity (CAMKK2 (human); compound 1.0 µM): 98%
residual activity (CAMKK2 (human); compound 10.0 µM): 80%
residual activity (PAK6 (human); compound 0.1 µM): 99%
residual activity (PAK6 (human); compound 1.0 µM): 83%
residual activity (PAK6 (human); compound 10.0 µM): 86%
